Assay results taken from EP0745599A2, “1-(3-Heterocyclylphenyl)-s-triazine-2,4,6-oxo or thiotrione herbicidal agents” (American Cyanamid Company, priority 1995, dated 1996).

How the values were obtained:
Assay type in all cases: in vivo
Details in all cases: rated four to five weeks after treatment
CASSIA OBTUSIFOLIA, L. [1] = experiment: Postemergence herbicidal evaluation, CASOB (Sicklepod)
Experimental: (§1) In the tests, seedling plants are grown in jiffy flats for about two weeks. The test compounds are dispersed in 50/50 acetone/water mixtures containing 0.5% TWEEN®20, a polyoxyethylene sorbitan monolaurate surfactant of Atlas Chemical Industries, in sufficient quantities to provide the equivalent of about 0.125 kg to 0.500 kg per hectare of active compound when applied to the plants through a spray nozzle operating at 40 psi for a predetermined time. After spraying, the plants are placed on greenhouse benches and are cared for in the usual manner, commensurate with conventional greenhouse practices. From four to five weeks after treatment, the seedling plants are examined and rated according to the rating system set forth below. Where more than one test is involved for a given compound, the data are averaged.
(§2) Results of herbicide evaluation are expressed on a rating scale (0-9). The scale is based upon a visual observation of plant stand, vigor, malformation, size, chlorosis and overall plant appearance as compared with a control.

[2] = system: ECHINOCHLOA CRUS-GALLI, (L) BEAU; experiment: Postemergence herbicidal evaluation, ECHCG (Barnyardgrass)
Summary of the method: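 Visual 0–9 ratings against untreated control, taken four to five weeks post-spray, score stand, vigor, malformation, size, chlorosis and overall appearance. Treatment was a postemergence spray at about 0.125 to 0.500 kg/ha on roughly two-week-old seedlings.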

[3] = system: SETARIA VIRIDIS, (L) BEAU; experiment: Postemergence herbicidal evaluation, SETVI (Foxtail, Green)
Experimental: as §1, §2

[4] = system: TRITICUM AESTIVUM, CV. APOLLO; experiment: Postemergence herbicidal evaluation, TRZAWO (Wheat, Winter, CV. APOLLO)
Experimental: as §1, §2

[5] = system: ABUTILON THEOPHRASTI, MEDIC.; experiment: Preemergence herbicidal evaluation, ABUTH (Velvetleaf); parameters: key to ABUTH: visual rating scale 0-9 vs control
Summary of the method: (§3)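 Visual 0-9 ratings versus control covering stand, vigor, malformation, size and chlorosis, scored 4-5 weeks post-treatment. Test compound in aqueous acetone applied preemergence to freshly seeded soil cups at roughly 0.125-0.50 kg/ha, then kept under standard greenhouse conditions.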

[6] = system: AMBROSIA ARTEMISIIFOLIA, L.; experiment: Preemergence herbicidal evaluation, AMBEL (Ragweed, Common); parameters: key to AMBEL: visual rating scale 0-9 vs control
Summary of the method: as §3

CASSIA OBTUSIFOLIA, L. [7] = experiment: Preemergence herbicidal evaluation, CASOB (Sicklepod); parameters: key to CASOB: visual rating scale 0-9 vs control
Summary of the method: as §3

CHENOPODIUM ALBUM, L. = experiment: Preemergence herbicidal evaluation, CHEAL (Lambsquarters, Common); parameters: key to CHEAL: visual rating scale 0-9 vs control
Summary of the method: as §3

IPOMOEA SPP. = experiment: Preemergence herbicidal evaluation, IPOSS (Morningglory Spp.); parameters: key to IPOSS: visual rating scale 0-9 vs control
Summary of the method: as §3

GALIUM APARINE = experiment: Preemergence herbicidal evaluation, GALAP (Galium); parameters: key to GALAP: visual rating scale 0-9 vs control
Summary of the method: as §3

[8] = system: ECHINOCHLOA CRUS-GALLI, (L) BEAU; experiment: Preemergence herbicidal evaluation, ECHCG (Barnyardgrass); parameters: key to ECHCG: visual rating scale 0-9 vs control
Summary of the method: as §3

[9] = system: SETARIA VIRIDIS, (L) BEAU; experiment: Preemergence herbicidal evaluation, SETVI (Foxtail, Green); parameters: key to SETVI: visual rating scale 0-9 vs control
Summary of the method: as §3

[10] = system: GLYCINE MAX(L)MERR. CV. WILLIAMS; experiment: Preemergence herbicidal evaluation, GLXMAW (Soybean, Williams); parameters: key to GLXMAW: visual rating scale 0-9 vs control
Summary of the method: as §3

[11] = system: ORYZA SATIVA, L. TEBONNET; experiment: Preemergence herbicidal evaluation, ORYSAT (Rice, Tebonnet); parameters: key to ORYSAT: visual rating scale 0-9 vs control
Summary of the method: as §3

[12] = system: TRITICUM AESTIVUM, CV. APOLLO; experiment: Preemergence herbicidal evaluation, TRZAWO (Wheat, Winter, CV. APOLLO); parameters: key to TRZAWO: visual rating scale 0-9 vs control
Summary of the method: as §3

ZEA MAYS L. = experiment: Preemergence herbicidal evaluation, ZEAMX (Corn, Field); parameters: key to ZEAMX: visual rating scale 0-9 vs control
Summary of the method: as §3

[13] = system: ORYZA SATIVA, L. TEBONNET; experiment: Postemergence herbicidal evaluation, ORYSAT (Rice, Tebonnet)
Experimental: as §1, §2

`CC(C)OC(=O)Cn1c(=O)n(C)c(=O)n(-c2cc(N3C(=O)C4C[S+]([O-])CCN4C3=O)c(F)cc2Cl)c1=O` (stereo not drawn) [Compound 14, Isopropyl 3-[2-chloro-4-fluoro-5-(tetra-hydro-1,3,7-trioxo-1H-imidazo[5,1-c][1,4]-thiazin-2(3H)-yl)phenyl]tetrahydro-5-methyl-2,4,6-trioxo-s-triazine-1(2H)-acetate] was tested, and the “Herbicide rating (0-9) CASOB” value (CASSIA OBTUSIFOLIA, L. [1]; 0.125 kg/ha) was 5.0, the “Herbicide rating (0-9) CASOB” value (CASSIA OBTUSIFOLIA, L. [1]; 0.250 kg/ha) was 5.0 and the “Herbicide rating (0-9) CASOB” value (CASSIA OBTUSIFOLIA, L. [1]; 0.500 kg/ha) was 5.0. For the same compound, the “Herbicide rating (0-9) ECHCG” value ([2]; 0.125 kg/ha) was 0.0, the “Herbicide rating (0-9) ECHCG” value ([2]; 0.250 kg/ha) was 0.0 and the “Herbicide rating (0-9) ECHCG” value ([2]; 0.500 kg/ha) was 0.0. The “Herbicide rating (0-9) SETVI” value ([3]; 0.125 kg/ha) was 1.0, the “Herbicide rating (0-9) SETVI” value ([3]; 0.250 kg/ha) was 1.0 and the “Herbicide rating (0-9) SETVI” value ([3]; 0.500 kg/ha) was 1.0. The “Herbicide rating (0-9) TRZAWO” value ([4]; 0.125 kg/ha) was 2.0, the “Herbicide rating (0-9) TRZAWO” value ([4]; 0.250 kg/ha) was 2.0 and the “Herbicide rating (0-9) TRZAWO” value ([4]; 0.500 kg/ha) was 2.0. It also gave an ABUTH ([5]; Rate 0.125 kg/ha) of 0.0, an ABUTH ([5]; Rate 0.250 kg/ha) of 0.0 and an ABUTH ([5]; Rate 0.500 kg/ha) of 4.0. It also gave an AMBEL ([6]; Rate 0.125 kg/ha) of 0.0, an AMBEL ([6]; Rate 0.250 kg/ha) of 2.0 and an AMBEL ([6]; Rate 0.500 kg/ha) of 3.0. The CASOB (CASSIA OBTUSIFOLIA, L. [7]; Rate 0.125 kg/ha) was 2.0, the CASOB (CASSIA OBTUSIFOLIA, L. [7]; Rate 0.250 kg/ha) was 2.0 and the CASOB (CASSIA OBTUSIFOLIA, L. [7]; Rate 0.500 kg/ha) was 4.0. The CHEAL (CHENOPODIUM ALBUM, L.; Rate 0.125 kg/ha) was 7.0, the CHEAL (CHENOPODIUM ALBUM, L.; Rate 0.250 kg/ha) was 6.0 and the CHEAL (CHENOPODIUM ALBUM, L.; Rate 0.500 kg/ha) was 9.0. For the same compound, the IPOSS (IPOMOEA SPP.; Rate 0.125 kg/ha) was 0.0, the IPOSS (IPOMOEA SPP.; Rate 0.250 kg/ha) was 1.0 and the IPOSS (IPOMOEA SPP.; Rate 0.500 kg/ha) was 3.0. For the same compound, the GALAP (GALIUM APARINE; Rate 0.125 kg/ha) was 7.0, the GALAP (GALIUM APARINE; Rate 0.250 kg/ha) was 7.0 and the GALAP (GALIUM APARINE; Rate 0.500 kg/ha) was 9.0. For the same compound, the ECHCG ([8]; Rate 0.125 kg/ha) was 0.0, the ECHCG ([8]; Rate 0.250 kg/ha) was 0.0 and the ECHCG ([8]; Rate 0.500 kg/ha) was 0.0. For the same compound, the SETVI ([9]; Rate 0.125 kg/ha) was 0.0, the SETVI ([9]; Rate 0.250 kg/ha) was 0.0 and the SETVI ([9]; Rate 0.500 kg/ha) was 1.0. For the same compound, the GLXMAW ([10]; Rate 0.125 kg/ha) was 0.0, the GLXMAW ([10]; Rate 0.250 kg/ha) was 0.0 and the GLXMAW ([10]; Rate 0.500 kg/ha) was 0.0. For the same compound, the ORYSAT ([11]; Rate 0.125 kg/ha) was 0.0, the ORYSAT ([11]; Rate 0.250 kg/ha) was 2.0 and the ORYSAT ([11]; Rate 0.500 kg/ha) was 4.0. It also gave a TRZAWO ([12]; Rate 0.125 kg/ha) of 0.0, a TRZAWO ([12]; Rate 0.250 kg/ha) of 1.0 and a TRZAWO ([12]; Rate 0.500 kg/ha) of 2.0. It also gave a ZEAMX (ZEA MAYS L.; Rate 0.125 kg/ha) of 0.0, a ZEAMX (ZEA MAYS L.; Rate 0.250 kg/ha) of 0.0 and a ZEAMX (ZEA MAYS L.; Rate 0.500 kg/ha) of 1.0.

For `C#CCn1c(=O)n(CC=C)c(=O)n(-c2cc(N3C(=O)C4=C(CCCC4)C3=O)c(F)cc2Cl)c1=O` [Compound 20, N-{5-[3-Allylhexahydro-2,4,6-trioxo-5-(2-propynyl)-s-triazin-1-yl]-4-chloro-2-fluoro-phenyl}-1-cyclohexene-1,2-dicarboximide], the “Herbicide rating (0-9) ECHCG” value ([2]; 0.125 kg/ha) was 0.0, the “Herbicide rating (0-9) ECHCG” value ([2]; 0.250 kg/ha) was 0.0 and the “Herbicide rating (0-9) ECHCG” value ([2]; 0.500 kg/ha) was 0.0. For the same compound, the “Herbicide rating (0-9) SETVI” value ([3]; 0.125 kg/ha) was 0.0, the “Herbicide rating (0-9) SETVI” value ([3]; 0.250 kg/ha) was 0.0 and the “Herbicide rating (0-9) SETVI” value ([3]; 0.500 kg/ha) was 0.0. The “Herbicide rating (0-9) ORYSAT” value ([13]; 0.125 kg/ha) was 2.0, the “Herbicide rating (0-9) ORYSAT” value ([13]; 0.250 kg/ha) was 2.0 and the “Herbicide rating (0-9) ORYSAT” value ([13]; 0.500 kg/ha) was 2.0.
